The test deals with women. Kind of test: Topical menthol applied to the vulva: increase of vaginal lubrication in women. The format is in vivo, human. Particulars: applied to the vulva (including the clitoris). The source says:
Abnormal sperm quality in combination with inadequate vaginal lubrication can cause infertility. The menthol-stimulated vaginal plasma transudate 30 that is generated by use of the inventive method compensates for lubrication insufficiency that may be present in the female sexual partner of the infertile male. […] Since most infertility is a combination of female and male factors, the production of this vaginal transudate 30 can aid conception rates of both infertile males and females. […] Therefore the sperm, even if they somehow are able to be capacitated, have little or no protective and nourishing substrate in which they can swim up through the external os 24 and into the cervical canal 21. The odds of fertilization are thus extremely low.

Turning to `CC1CCC(C(C)C)C(O)C1` (centres unmarked) [menthol], the “women in whom lubrication is increased” value is, setting by setting: (all women) 80%; (women over 35) 90%.

Values taken from patent US10004697B2, “In vivo sperm selection for treating male infertility” (M Pharmaceutical USA Inc., priority 2016, dated 2018).
